Source: patent publication US8513270B2, “Substituted heterocycles as Janus kinase inhibitors” (Incyte Corporation, priority 2006, dated 2013)
Read-outs that look alike come from different tables or passages of the source.

Columns and labels:
[1] = biological target: T1, human JAK2 (a.a. 828-1132) (Homo sapiens, UniProt O60674); test: In vitro JAK kinase assay (HTRF), JAK2; format: biochemical; details: JAK2, 30 μM ATP; read-out: EXAMPLE A HTS-JAK2 HTRF-2 IC50
T1 construct: JAK2 (a.a. 828-1132); His tag (N); made in house; host or cells: insect cells (baculovirus)
T1 sequence (O60674 828-1132): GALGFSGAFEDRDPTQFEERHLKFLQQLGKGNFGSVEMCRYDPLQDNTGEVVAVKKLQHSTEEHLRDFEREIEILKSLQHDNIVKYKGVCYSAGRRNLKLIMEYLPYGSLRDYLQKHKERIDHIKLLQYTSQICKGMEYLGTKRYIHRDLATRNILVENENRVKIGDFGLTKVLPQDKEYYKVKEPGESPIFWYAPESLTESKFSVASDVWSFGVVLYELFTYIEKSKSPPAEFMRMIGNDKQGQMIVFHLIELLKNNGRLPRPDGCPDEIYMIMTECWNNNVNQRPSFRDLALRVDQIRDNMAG
Outline: (§1)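 His-tagged catalytic domains from baculovirus-infected insect cells phosphorylated 500 nM biotinylated peptide in 50 mM Tris pH 7.8, 100 mM NaCl, 5 mM DTT, 0.01% BSA for 1 h at room temperature. ATP was 90 μM (JAK1), 30 μM (JAK2), 3 μM (JAK3). Detection used Eu-Py20/SA-APC; IC50s were derived.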

[2] = biological target: T2, human JAK1 (a.a. 837-1142) (Homo sapiens, UniProt P23458); test: In vitro JAK kinase assay (HTRF), JAK1; format: biochemical; details: JAK1, 90 μM ATP; read-out: EXAMPLE A JAK2-JAK1 HTRF-2 IC50
T2 construct: human JAK1 (a.a. 837-1142); His tag (N); made in house; host or cells: insect cells (baculovirus)
T2 sequence (P23458 849-1154): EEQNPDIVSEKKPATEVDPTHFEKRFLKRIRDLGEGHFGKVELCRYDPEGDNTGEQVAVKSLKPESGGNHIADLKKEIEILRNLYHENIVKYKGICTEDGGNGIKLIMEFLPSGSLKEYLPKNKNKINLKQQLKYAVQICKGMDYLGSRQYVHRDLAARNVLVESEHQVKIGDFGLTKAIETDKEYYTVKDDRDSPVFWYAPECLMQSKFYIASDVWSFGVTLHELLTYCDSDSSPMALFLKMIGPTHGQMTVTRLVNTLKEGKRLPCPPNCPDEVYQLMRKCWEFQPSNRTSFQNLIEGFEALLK
Outline: as §1

[3] = biological target: T3, human JAK3 (a.a. 781-1124) (Homo sapiens, UniProt P52333); test: In vitro JAK kinase assay (HTRF), JAK3; format: biochemical; details: JAK3, 3 μM ATP; read-out: EXAMPLE A JAK2-JAK3 HTRF-2 IC50
T3 construct: JAK3 (a.a. 781-1124); His tag (N); made in house; host or cells: insect cells (baculovirus)
T3 sequence (P52333 781-1124): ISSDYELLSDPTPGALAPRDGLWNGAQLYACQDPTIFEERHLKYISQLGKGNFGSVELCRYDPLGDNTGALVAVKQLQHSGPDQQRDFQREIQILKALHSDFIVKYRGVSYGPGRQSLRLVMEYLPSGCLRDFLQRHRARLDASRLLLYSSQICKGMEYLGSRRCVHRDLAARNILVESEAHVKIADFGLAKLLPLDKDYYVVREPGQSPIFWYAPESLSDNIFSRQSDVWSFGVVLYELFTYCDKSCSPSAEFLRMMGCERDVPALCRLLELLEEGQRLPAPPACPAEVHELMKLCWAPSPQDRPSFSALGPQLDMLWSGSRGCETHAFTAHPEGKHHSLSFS
Outline: as §1

TF1-BCRABL1 cells = TF1-BCRABL1 cells (Homo sapiens, UniProt P00519); test: ABL1 cell based assay: viability of ABL1-dependent cell line (CellTiter-Glo)
Outline: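 ABL1-dependent cells plated at 3000 per well in RPMI 1640 with 10% FBS and exposed to compounds for 72 h at 37° C, 5% CO2, 0.2% DMSO final. Viability read by CellTiter-Glo luminescence; duplicate or more.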

ABL1 kinase (wild-type) = biological target: T4, ABL1 kinase (wild-type) (Homo sapiens, UniProt P00519); test: ABL1 HTRF assay (wild-type); format: biochemical; details: 35 μM ATP; read-out: EXAMPLE G WT Abl IC50
T4 construct: The catalytic domains of ABL1 kinases (residues 27 to the C-termini) were N-terminal His tagged; His tag (N); purchased Upstate Cell Signaling Solutions; host or cells: insect cells (baculovirus)
Description: (§2) Compounds herein described were tested for inhibitory activity of ABL1 kinase (wild-type and T315I mutant) as described below. The catalytic domains of ABL1 kinases (residues 27 to the C-termini) were N-terminal His tagged and expressed by baculovirus in insect cells and purified. These were purchased in purified form from Upstate Cell Signaling Solutions. ABL1 and T315I ABL1 catalyze the phosphorylation of p28. The phosphorylated p28 is detected by Homogeneous Time Resolved Fluorescence (HTRF). IC50s of compounds were measured for each kinase in the reactions that contain: 1-2 nM ABL1 or T315I ABL1, 500 nM peptide, 35 μM ATP for ABL1 and 10 μM ATP for T315I ABL1, 2.0% DMSO in assay buffer containing 50 mM Tris, pH 7.8, 100 mM NaCl, 10 mM MgCl2, 5 mM DTT, 0.6 mg/mL BSA. Reactions proceed at room temperature for one and half hour and were stopped by adding, 20 μL additional 50 mM NaCl, 0.4 mg/mL BSA, 45 mM EDTA, 200 nM SA-APC, 4 nM Eu—Py20 in assay buffer. The plates were incubated at room temperature for 40 min and HTRF was then measured on a plate reader.

T315I ABL1 = biological target: T5, T315I ABL1 (Homo sapiens, UniProt P00519, T315I); test: T315I ABL1 HTRF assay; format: biochemical; details: 10 μM ATP; read-out: EXAMPLE G T315I Abl IC50
T5 construct: The catalytic domains of ABL1 kinases (residues 27 to the C-termini) were N-terminal His tagged; His tag (N); purchased Upstate Cell Signaling Solutions; host or cells: insect cells (baculovirus)
Description: as §2

[4] = system: JAK2_INA61 (cancer cell line dependent on cytokines and JAK/STAT signal transduction); test: Cellular assay: viability of cytokine-dependent cancer cell line (CellTiter-Glo); format: cell-based; details: 72 hours, read-out: EXAMPLE B JAK2_INA61 IC50
Description: One or more compounds herein were tested for inhibitory activity of JAK targets according to at least one of the following cellular assays.
Compounds were added to the cells in DMSO/media (final concentration 0.2% DMSO) and incubated for 72 hours at 37° C., 5% CO2. The effect of compound on cell viability was assessed using the CellTiter-Glo Luminescent Cell Viability Assay (Promega) followed by TopCount (Perkin Elmer, Boston, Mass.) quantitation. Potential off-target effects of compounds were measured in parallel using a non-JAK driven cell line with the same assay readout. […] All experiments were performed in duplicate.

[5] = 72 hours, cell viability, read-out: EXAMPLE F JAK2-TF1-BCRABL1 IC50
[6] = TF1_BCRABL cells, read-out: EXAMPLE H TF1_BCRABL IC50

| SMILES | IC50 [1] [nM] | IC50 [2] [nM] | IC50 [3] [nM] | GI50 (TF1-BCRABL1 cells; [5]) [nM] | GI50 (TF1-BCRABL1 cells; [6]) [nM] | IC50 (ABL1 kinase (wild-type)) [nM] | IC50 (T315I ABL1) [nM] | IC50 [4] [nM] |
| --- | --- | --- | --- | --- | --- | --- | --- | --- |
| Cc1ccc(NC(=O)c2cc(N3CCN(C)CC3)cc(C(F)(F)F)c2)cc1-c1ccc2c(c1)[nH]c1ncncc12 [Example 26, 3-(4-Methylpiperazin-1-yl)-N-[4-methyl-3-(9H-pyrimido[4,5-b]indol-7-yl)phenyl]-5-(trifluoromethyl)benzamide bis(trifluoroacetate)] | ≤ 500 | ≤ 500 | ≤ 500 | ≤ 500 | < 180 | < 200 | < 190 |  |
| Cc1ccc(NC(=O)c2cccc(C(F)(F)F)c2)cc1-c1ccc2[nH]c3ncncc3c2c1 [Example 40, N-[4-Methyl-3-(9H-pyrimido[4,5-b]indol-6-yl)phenyl]-3-(trifluoromethyl)benzamide] | ≤ 500 | ≤ 500 | 500 to 1000 | ≤ 500 | < 180 | < 200 | < 190 | ≤ 500 |
| Cc1ccc(C(=O)Nc2cccc(C(F)(F)F)c2)cc1-c1ccc2c(c1)[nH]c1ncncc12 [Example 52, 4-methyl-3-(9H-pyrimido-[4,5-b]indol-7-yl)-N-[3-(trifluoromethyl)phenyl]benzamide] | ≤ 500 | ≤ 500 | ≤ 500 | ≤ 500 | < 180 | < 200 | < 190 | 500 to 1000 |
| O=C(Nc1cccc(C(F)(F)F)c1)c1ccc(Cl)c(-c2ccc3c(c2)[nH]c2ncncc23)c1 [Example 58, 4-chloro-3-(9H-pyrimido-[4,5-b]indol-7-yl)-N-[3-(trifluoromethyl)phenyl]-benzamide] | ≤ 500 | ≤ 500 | ≤ 500 | ≤ 500 | < 180 | < 200 | < 190 | 500 to 1000 |
| Cc1ccc(C(=O)Nc2cncc(C(F)(F)F)c2)cc1-c1ccc2c(c1)[nH]c1ncncc12 [Example 66, 4-Methyl-3-(9H-pyrimido[4,5-b]indol-7-yl)-N-[5-(trifluoromethyl)pyridin-3-yl]-benzamide] | ≤ 500 | ≤ 500 | ≤ 500 | ≤ 500 | < 180 | < 200 | < 190 | 500 to 1000 |
